Assay [1] has as its system N-ras RNA. In words: RNase H mediated cleavage of N-ras RNA, cell-free system. Format: biochemical. Particulars: RNase H from E. coli. On the procedure: The ability to cleave N-ras RNA specifically by PNA-DNA chimera directed against N-ras which can induce RNase H was tested in a cell-free system. First, radioactively labelled N-ras RNA was prepared by in vitro transcription.
The plasmid pMS5-NRAS, which is a derivative of pBluescript II KS (±/−) containing the mutant N-ras sequence (codon 13 GGT→CGT) cloned into XbaI/EcoRI sites, was linearized with EcoR1. After phenol extraction and ethanol precipitation the linear DNA was used as template for in vitro transcription. For transcription, the DNA (5 μg) was incubated in a 100 μl mixture containing 10 mM DTT, 40 mM Tris-HCl pH 7.5, 50 mM NaCl, 8 mM MgCl2, 2 mM spermidine, 500 μM of each rNTP, 80 u RNase-inhibitor, 40 μCi [α-^32P]-(ATP) and 250 u T7 RNA polymerase. After incubation for 1 h at 37° C., the DNA was digested by addition of 25 u DNaseI and further incubation for 30 min at 37° C. After extraction with phenol and chloroform, the aqueous phase was transferred into a Centricon tube and centrifuged at 3410 rpm for 30 min. The RNA was analyzed by PAGE (6% PAA, 8 M urea). For the RNase H cleavage the radioactively labelled N-ras RNA (approximately 0.05 nmol; aqueous solution from above) was hybridized with the PNA-DNA chimera speific for N-ras mRNA (6.5 nmol) by heating to 80° C. and cooling to room temperature. […] The cleavage reactions were analyzed by PAGE (6% PAA, 8 M urea) gel.

Assay [2] relates to TNF-α. In words: Inhibition of TNF-α expression in THP-1 cells (ELISA). Format: cell-based, human. Particulars: 0.1-0,5 μM, Cellfectin, PMA/IFNγ stimulation. The method, then:
Cell Culture. The human monocytic cell line, THP-1 was grown in RPMI 1640 supplemented with L-glutamine (GIBCO BRL, Life Technologies, Inc.), 10% heat inactivated fetal bovine serum (GIBCO BRL) and penicillin (100 U/ml)/streptomycin (100 μg/ml). The NIH3T3 permanently producing human TNFα was maintained in 10% DMEM.
Enzyme Linked Immunosorbent Assays (ELISA) for TNFα. The TNFα level was quantified using ELISA kit (Cat. #DTA50) obtained from R&D Systems (Minneapolis, Minn.).
Assay Methods. THP-1 cells (3×10^6) were seeded in 48-well plates in 0.2 ml of Opti-MEM (GIBCO) medium. In a 96-well plate, varying concentrations of PNA-DNA chimera (20 μl) were each added to 20 μl of Cellfectin in Opti-MEM (2.4 μl of 1 mg/ml Cellfectin added to 17.6 μl Opti-MEM) and incubated for 15 min at room temperature. The mixture was then added to the cells dropwise. The final concentration of the Cellfectin was 10 μg/ml in 0.24 ml of Opti-MEM. After 4 hours at 37° C., 0.48 ml of 15% RPMI medium was added to each well (This dilution step was added to inactivate the Cellfectin). The final concentration of cells was ˜1×10^6 calls/ml in 10% RPMI. The cells were then stimulated with a combination of 100 ng/ml of PMA and 300 U/ml of IFNγ. […] The supernatants were analyzed for TNFα.

For the substance “5′-CCAACA-(Oeg(c))-cgacctgct-hex [Example 57]”, the “induction of RNase H mediated cleavage of N-ras RNA” value in assay [1] was “able to induce RNase H mediated cleavage”.

Consider “5′-USCSASGGSUG-(Oeg(t))-cctttgcag-hex [Example 56]”, for which the “inhibition of TNF-α expression relative to untreated controls” value in assay [2] is given as 25-35%.

For the origin of these results see US6919441B2, “Polyamide-oligonucleotide derivatives, their preparation and use” (Aventis Pharma Deutschland GmbH, priority 1995, dated 2005).
